The record followed here is US8455475B2 (Gruenenthal GmbH, priority 2009, dated 2013).

Each structure is given as a SMILES string.

In general, inhibition refers to the drop in the measured response relative to a control, in per cent.

Assay [1] concerns the target T1, human B1R (bradykinin receptor 1) (Homo sapiens, UniProt P46663).
T1 construct: expressed in transfected cells; host or cells: CHO K1 cells
T1 sequence (P46663 1-353): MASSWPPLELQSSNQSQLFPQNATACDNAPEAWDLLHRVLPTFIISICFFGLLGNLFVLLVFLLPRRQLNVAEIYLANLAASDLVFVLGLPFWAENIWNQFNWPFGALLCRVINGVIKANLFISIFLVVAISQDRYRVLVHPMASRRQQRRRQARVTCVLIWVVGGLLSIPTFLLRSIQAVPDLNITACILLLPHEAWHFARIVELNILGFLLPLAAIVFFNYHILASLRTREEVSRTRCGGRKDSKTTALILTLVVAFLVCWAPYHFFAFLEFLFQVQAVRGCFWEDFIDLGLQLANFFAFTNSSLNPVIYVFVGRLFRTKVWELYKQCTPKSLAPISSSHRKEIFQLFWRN
The assay is described as follows: FLIPR Ca2+ assay (Fluo-4) on CHO K1 cells stably transfected with the human B1R gene (hB1R cells): % inhibition at 10 μM / IC50, agonist Lys-Des-Arg9-bradykinin. Type of assay: cell-based. The following applies: CHO-K1, human B1R. An outline of the steps:
(§1)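 Loading with Fluo-4 occurs for 60 min at 37 °C, or alternatively in buffer A, before FLIPR measurement. Compounds are applied, incubated 10–20 min, and then the EC80 agonist is added. Antagonism appears as reduced peak Ca2+ signal relative to maximal inhibition.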

Assay [2] deals with T2, rat B1R (bradykinin receptor 1) (Rattus norvegicus, UniProt P97583).
T2 construct: expressed in transfected cells; host or cells: CHO K1 cells
T2 sequence (P97583 1-337): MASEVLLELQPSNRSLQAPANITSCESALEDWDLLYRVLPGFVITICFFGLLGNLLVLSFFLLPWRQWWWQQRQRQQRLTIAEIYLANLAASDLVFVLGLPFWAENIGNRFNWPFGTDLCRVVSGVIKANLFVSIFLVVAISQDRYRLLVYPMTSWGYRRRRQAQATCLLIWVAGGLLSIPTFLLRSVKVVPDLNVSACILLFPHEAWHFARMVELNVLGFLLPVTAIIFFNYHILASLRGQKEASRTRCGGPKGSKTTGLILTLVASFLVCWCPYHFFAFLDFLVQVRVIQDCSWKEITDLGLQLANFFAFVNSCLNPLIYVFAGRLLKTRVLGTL
The assay is described as follows: FLIPR Ca2+ assay (Fluo-4) on CHO K1 cells stably transfected with the B1R gene of the rat (rB1R cells): % inhibition at 10 μM / IC50, agonist Des-Arg9-bradykinin. Type of assay: cell-based. The following applies: CHO-K1, rat B1R. In a few lines: as §1

In the case of `O=C(c1ccc2c(c1)[C@H](NS(=O)(=O)c1c(Cl)cccc1C(F)(F)F)CC2)N1CCC2(CCN(c3ccncc3)CC2)C1` [Example H-149, 2-Chloro-N-[(1R)-6-(8-pyridin-4-yl-3,8-diazaspiro[4.5]decane-3-carbonyl)-2,3-dihydro-1H-inden-1-yl]-6-(trifluoromethyl)-benzenesulfonic acid amide], the results for the inhibition at 10 µM in assay [1] and in assay [2] were 100% and 103%, respectively.
For the molecule `O=C(c1ccc2c(c1)[C@H](NS(=O)(=O)Cc1ccccc1Cl)CC2)N1CCC2(CCN(c3ccncc3)CC2)C1` [Example H-150, 1-(2-Chlorophenyl)-N-[(1R)-6-(8-pyridin-4-yl-3,8-diazaspiro[4.5]decane-3-carbonyl)-2,3-dihydro-1H-inden-1-yl]-methanesulfonic acid amide], the inhibition at 10 µM in assay [1] is 97%; in assay [2], 100%.
Regarding `O=C(Cc1ccccc1Cl)N[C@@H]1CCc2ccc(C(=O)N3CCC4(CCN(c5ccncc5)CC4)C3)cc21` [Example H-151, 2-(2-Chlorophenyl)-N-[(1R)-6-(8-pyridin-4-yl-3,8-diazaspiro[4.5]decane-3-carbonyl)-2,3-dihydro-1H-inden-1-yl]-acetamide], the inhibition at 10 µM in assay [1] is 99%; in assay [2], 103%.
`O=C(Cc1ccccc1F)N[C@@H]1CCc2ccc(C(=O)N3CCC4(CCN(c5ccncc5)CC4)C3)cc21` [Example H-152, 2-(2-Fluorophenyl)-N-[(1R)-6-(8-pyridin-4-yl-3,8-diazaspiro[4.5]decane-3-carbonyl)-2,3-dihydro-1H-inden-1-yl]-acetamide]: the inhibition at 10 µM in assay [1] worked out at 99%; in assay [2], 101%.
The corresponding values for `O=C(N[C@@H]1CCc2ccc(C(=O)N3CCC4(CCN(c5ccncc5)CC4)C3)cc21)c1cccc(F)c1Cl` [Example H-153, 2-Chloro-3-fluoro-N-[(1R)-6-(8-pyridin-4-yl-3,8-diazaspiro[4.5]decane-3-carbonyl)-2,3-dihydro-1H-inden-1-yl]-benzamide] are 99% and 105%.
The corresponding values for `Cc1ccccc1CC(=O)N[C@@H]1CCc2ccc(C(=O)N3CCC4(CCN(c5ccncc5)CC4)C3)cc21` [Example H-154, 2-(o-Tolyl)-N-[(1R)-6-(8-pyridin-4-yl-3,8-diazaspiro[4.5]decane-3-carbonyl)-2,3-dihydro-1H-inden-1-yl]-acetamide] are 99% and 105%.
`O=C(N[C@H]1CCc2cc(C(=O)N3CCC4(CCN(c5ccncc5)CC4)C3)ccc21)c1ccccc1Cl` [Example H-155]: the inhibition at 10 µM was found to be 87% in assay [1] and 100% in assay [2].
On to `O=C(N[C@H]1CCc2cc(C(=O)N3CCC4(CC3)CCN(c3ccncc3)CC4)ccc21)c1ccccc1Cl` [Example H-156, 2-Chloro-N-[(1S)-5-(9-pyridin-4-yl-3,9-diazaspiro[5.5]undecane-3-carbonyl)-2,3-dihydro-1H-inden-1-yl]-benzamide], for which the inhibition at 10 µM in assay [1] amounted to 24%; in assay [2], 75%.
Consider `O=C(c1ccc2c(c1)CC[C@@H]2N1Cc2cccc(Cl)c2C1=O)N1CCC2(CCN(c3ccncc3)CC2)C1` [Example H-157], for which the inhibition at 10 µM in assay [1] came out at 100%; in assay [2], 98%.
The corresponding values for `O=C(c1ccc2c(c1)CC[C@@H]2N1Cc2cccc(Cl)c2C1=O)N1CCC2(CC1)CCN(c1ccncc1)CC2` [Example H-158, 7-Chloro-2-[(1S)-5-(9-pyridin-4-yl-3,9-diazaspiro[5.5]undecane-3-carbonyl)-2,3-dihydro-1H-inden-1-yl]-2,3-dihydro-isoindol-1-one] are 92% and 100%.
For `O=C(c1ccc2c(c1)CC[C@H]2N1Cc2cccc(Cl)c2C1=O)N1CCC2(CC1)CCN(c1ccncc1)CC2` [Example H-159, 7-Chloro-2-[(1R)-5-(9-pyridin-4-yl-3,9-diazaspiro[5.5]undecane-3-carobnyl)-2,3-dihydro-1H-inden-1-yl]-2,3-dihydro-isoindol-1-one], the inhibition at 10 µM amounted to 98% in assay [1] and 103% in assay [2].
In the case of `O=C(c1ccc2c(c1)CC[C@H]2N1Cc2cccc(Cl)c2C1=O)N1CCC2(CCN(c3ccncc3)CC2)C1` [Example H-160], the results for the inhibition at 10 µM in assay [1] and in assay [2] were 98% and 105%, respectively.
Consider `O=C(N[C@H]1CCc2c(C(=O)N3CCC4(CCN(c5ccncc5)CC4)C3)cccc21)c1ccccc1Cl` [Example H-161, 2-Chloro-N-[(1S)-4-(8-pyridin-4-yl-3,8-diazaspiro[4.5]decane-3-carbonyl)-2,3-dihydro-1H-inden-1-yl]-benzamide], for which the inhibition at 10 µM stood at 89% in assay [1] and 104% in assay [2].
For the molecule `O=C(N[C@@H]1CCc2c(C(=O)N3CCC4(CCN(c5ccncc5)CC4)C3)cccc21)c1ccccc1Cl` [Example H-162, 2-Chloro-N-[(1R)-4-(8-pyridin-4-yl-3,8-diazaspiro[4.5]decane-3-carbonyl)-2,3-dihydro-1H-inden-1-yl]-benzamide], the inhibition at 10 µM amounted to 13% in assay [1] and 61% in assay [2].
For `O=C(N[C@H]1CCc2c(C(=O)N3CCC4(CC3)CCN(c3ccncc3)CC4)cccc21)c1ccccc1Cl` [Example H-163, 2-Chloro-N-[(1S)-4-(9-pyridin-4-yl-3,9-diazaspiro[5.5]undecane-3-carbonyl)-2,3-dihydro-1H-inden-1-yl]-benzamide] the same measures were 63% and 105%.
For `O=C(N[C@@H]1CCc2c(C(=O)N3CCC4(CC3)CCN(c3ccncc3)CC4)cccc21)c1ccccc1Cl` [Example H-164, 2-Chloro-N-[(1R)-4-(9-pyridin-4-yl-3,9-diazaspiro[5.5]undecane-3-carbonyl)-2,3-dihydro-1H-inden-1-yl]-benzamide] the same measures were 25% and 77%.
For `O=C(c1cccc2c1CC[C@@H]2NS(=O)(=O)c1ccccc1Cl)N1CCC2(CCN(c3ccncc3)CC2)C1` [Example H-165, 2-Chloro-N-[(1S)-4-(8-pyridin-4-yl-3,8-diazaspiro[4.5]decane-3-carbonyl)-2,3-dihydro-1H-inden-1-yl]-benzenesulfonic acid amide], the inhibition at 10 µM in assay [1] and in assay [2] was 44% in each case.
As for `O=C(c1cccc2c1CC[C@H]2NS(=O)(=O)c1ccccc1Cl)N1CCC2(CCN(c3ccncc3)CC2)C1` [Example H-166, 2-Chloro-N-[(1R)-4-(8-pyridin-4-yl-3,8-diazaspiro[4.5]decane-3-carbonyl)-2,3-dihydro-1H-inden-1-yl]-benzenesulfonic acid amide], the inhibition at 10 µM in assay [1] was 21%; in assay [2], -4%.
On to `O=C(c1cccc2c1CC[C@H]2NS(=O)(=O)c1ccccc1Cl)N1CCC2(CC1)CCN(c1ccncc1)CC2` [Example H-167, 2-Chloro-N-[(1R)-4-(9-pyridin-4-yl-3,9-diazaspiro[5.5]undecane-3-carbonyl)-2,3-dihydro-1H-inden-1-yl]-benzenesulfonic acid amide], for which the inhibition at 10 µM in assay [1] is 35%; in assay [2] it was 81%.
For `O=C(c1cccc2c1CC[C@@H]2N1Cc2cccc(Cl)c2C1=O)N1CCC2(CCN(c3ccncc3)CC2)C1` [Example H-168, 7-Chloro-2-[(1S)-4-(8-pyridin-4-yl-3,8-diazaspiro[4.5]decane-3-carbonyl)-2,3-dihydro-1H-inden-1-yl]-2,3-dihydro-isoindol-1-one] the same measures were 96% and 55%.
For `O=C(c1cccc2c1CC[C@H]2N1Cc2cccc(Cl)c2C1=O)N1CCC2(CCN(c3ccncc3)CC2)C1` [Example H-169, 7-Chloro-2-[(1R)-4-(8-pyridin-4-yl-3,8-diazaspiro[4.5]decane-3-carbonyl)-2,3-dihydro-1H-inden-1-yl]-2,3-dihydro-isoindol-1-one] the same measures were 54% and 12%.
As to `O=C(c1cccc2c1CC[C@H]2N1Cc2cccc(Cl)c2C1=O)N1CCC2(CC1)CCN(c1ccncc1)CC2` [Example H-170, 7-Chloro-2-[(1R)-4-(9-pyridin-4-yl-3,9-diazaspiro[5.5]undecane-3-carbonyl)-2,3-dihydro-1H-inden-1-yl]-2,3-dihydro-isoindol-1-one], the values for the inhibition at 10 µM in assay [1] and in assay [2] were 56% and 47%, respectively.
On to `O=C(N[C@@H]1CCc2cc(C(=O)N3CCC4(CCN(c5ccncc5)CC4)C3)ccc21)c1ccccc1Cl` [Example H-171], for which the inhibition at 10 µM in assay [1] was determined as 100%; in assay [2] it was 104%.
